B1: BPI: bactericidal/permeability-increasing protein isolated from granules of polymorphonuclear leukocytes (protein, UniProt P17213 32-487, looked up)
Bactericidal …: VNPGVVVRISQKGLDYASQQGTAALQKELKRIKIPDYSDSFKIKHLGKGHYSFYSMDIREFQLPSSQISMVPNVGLKFSISNANIKISGKWKAQKRFLKMSGNFDLSIEGMSISADLKLGSNPTSGKPTITCSSCSSHINSVHVHISKSKVGWLIQLFHKKIESALRNKMNSQVCEKVTNSVSSELQPYFQTLPVMTKIDSVAGINYGLVAPPATTAETLDVQMKGEFYSENHHNPPPFAPPVMEFPAAHDRMVYLGLSDYFFNTAGLVYQEAGVLKMTLRDDMIPKESKFRLTTKFFGTFLPEVAKKFPNMKIQIHVSASTPPHLSVQPTGLTFYPAVDVQAFAVLPNSSLASLFLIGMHTTGSMEVSAESNRLVGELKLDRLLLELKHSNIGPFPVELLQDIMNYIVPILVLPRVNEKLQKGFPLPTPARVQLYNVVLQPHQNFLLFGADVVYK
B2: rBPI: recombinant BPI holoprotein (protein, UniProt P17213 32-487, looked up)
Bactericidal …: B1 Bactericidal …

Tests used:
[1] = test system: Pseudomonas aeruginosa strain isolated from a sputum sample from a CF patient; test: Dade MicroScan gram-negative panels supplemented with rBPI21; format: cell-based; conditions: for susceptibility of the strain to combination of rBPI21 and antibiotic: supplemented with 16 μg/mL rBPI21 formulated with 0.2% poloxamer 188; for change of susceptibility to antibiotic: in combination with rBPI21 formulated with 0.2% poloxamer 403; for change of antibiotic MIC: in combination with rBPI21 formulated with 0.2% poloxamer 403, versus poloxamer 188 formulation
autoantibodies to BPI = conditions: adult CF patients, Zhao et al. 1996; cited from earlier work
anti-BPI antibodies = test: enzyme immunoassay of BPI antibody titers in plasma samples from cystic fibrosis patients; format: binding, human; conditions: 11 CF patient plasma samples, dilutions 1/100 to 1/12,800; protein coated as antigen
Description: Plasma samples from 11 cystic fibrosis (CF) patients were tested for the presence of anti-BPI antibodies as follows. BPI holoprotein (rBPI) or an N-terminal BPI protein product (rBPI21) were used as antigen sources in an enzyme immunoassay. The wells of Immulon 2 microtiter plates (Dynatech Laboratories Inc., Chantilly, Va.) were coated overnight at 2-8° C. with 50 uL of rBPI21 (0.5 μg/mL) or rBPI (1 μg/mL) diluted in phosphate buffered saline, pH 7.2 (PBS). Unbound BPI was removed and 200 μL of PBS containing 0.1% human serum albumin and 0.1% goat serum was added to all wells. After blocking the plates for 1 hour at room temperature, the wells were washed 3 times with 300 μL of wash buffer (PBS/0.5% Tween 20). Plasma samples were prepared as serial two-fold dilutions from 1/100 to 1/12,800. Plasma samples were diluted in triplicate with PBS containing 1% bovine serum albumin, 1% goat serum and 0.05% Tween 20 (PBS-BSA-GS/Tween). […] The absorbance at 405 nm (A405) was determined for all wells using a Vmax Plate Reader (Molecular Devices Corp., Menlo Park, Calif.).
The mean A405 for all samples were corrected for background by subtracting the mean A405 of wells receiving sample dilution buffer (no plasma) in the primary incubation step. […] An absorbance greater than 0.05 units was considered to be above background.

Row | Molecule | susceptibility of the strain to combination of rBPI21 and antibiotic [1] | change of susceptibility to antibiotic [1] | other results
1 | CC1(C)S[C@@H]2[C@H](NC(=O)C(C(=O)O)c3ccccc3)C(=O)N2[C@H]1C(=O)O (stereo partly shown) [carbenicilin] | susceptible |  | 
2 | sulfamethoxazole/trimethoprim | susceptible |  | 
3 | CCN[C@@H]1C[C@H](N)[C@@H](O[C@H]2OC(CN)=CC[C@H]2N)[C@H](O)[C@H]1O[C@H]1OC[C@](C)(O)[C@H](NC)[C@H]1O [netilmicin] |  | increased susceptibity | 
4 | C[C@H]1[C@H](NC(=O)/C(=N\OC(C)(C)C(=O)O)c2csc(N)n2)C(=O)N1S(=O)(=O)O [aztreonam] | susceptible |  | change of antibiotic MIC [1]: further decreased the MICs
5 | O=C(O)c1cn(C2CC2)c2cc(N3CCNCC3)c(F)cc2c1=O [ciprofloxacin] | susceptible |  | change of antibiotic MIC [1]: further decreased the MICs
6 | O=C(N[C@H](CO)[C@H](O)c1ccc([N+](=O)[O-])cc1)C(Cl)Cl [chloramphenicol] |  | increased susceptibity | 
7 | CC1(C)S[C@@H]2[C@H](NC(=O)[C@H](NC(=O)N3CCNC3=O)c3ccccc3)C(=O)N2[C@H]1C(=O)O [azlocillin] |  | increased susceptibity | 
8 | Augmentin |  | increased susceptibity | 
9 | NC[C@H]1O[C@H](O[C@H]2[C@H](O)[C@@H](O[C@H]3O[C@H](CO)[C@@H](O)[C@H](N)[C@H]3O)[C@H](N)C[C@@H]2N)[C@H](N)C[C@@H]1O [tobramycin] | susceptible |  | 
10 | B1 |  |  | sera with autoantibodies to BPI (autoantibodies to BPI): 60/66
11 | B2 |  |  | plasma samples with detectable immune response (A405>0.05) (anti-BPI antibodies): 7/11

From patent publication US20030194377A1, “Therapeutic uses of BPI protein products in cystic fibrosis patients” (priority 1996, published 2003)
